This note sets out measurements from US4886810A, “Quinoline derivatives, pharmaceutical composition and method of use” (Dainippon Pharmaceutical Co., Ltd., priority 1986, dated 1989).

In one data set the test system is S. pyogenes A 65. The experiment in a line: microbe, parasite or virus in culture. The format is cell-based. The note with it: Streptococcus pyogenes, A65, 20 h; read-out: minimum inhibitory concentrations (MIC).
For the next data set, the system named is S. aureus No. 80. The experiment in a line: microbe, parasite or virus in culture. The settings on record: Staphylococcus aureus, NO.80, 20 h; read-out: minimum inhibitory concentrations (MIC). The format is cell-based.
The next data set relates to S. aureus No. 50774. The experiment in a line: microbe, parasite or virus in culture. The format is cell-based. The note with it: Staphylococcus aureus, NO.50774, 20 h; read-out: minimum inhibitory concentrations (MIC).
Another data set can be described thus: in vivo. The note with it: mouse, po.
The subject of the next data set is S. aureus 209P JC-1. Description: microbe, parasite or virus in culture. The format is cell-based. The note with it: Staphylococcus aureus, 20 h, read-out: minimum inhibitory concentrations (MIC).
The next data set deals with B. abortus kusayanagi. The experiment in a line: microbe, parasite or virus in culture. The format is cell-based. The settings on record: Brucella abortus, 20 h; read-out: minimum inhibitory concentrations (MIC).
The subject of another data set is M. lacunata P-7102. Description: microbe, parasite or virus in culture. The format is cell-based. The settings on record: 20 h; read-out: minimum inhibitory concentrations (MIC).
In a further data set the test system is E. coli P-51213. Description: microbe, parasite or virus in culture. The format is cell-based. The settings on record: Escherichia coli, P51213, 20 h; read-out: minimum inhibitory concentrations (MIC).
Another data set has as its system S. pyogenes Cook. Description: microbe, parasite or virus in culture. The format is cell-based. The settings on record: Streptococcus pyogenes, 20 h; read-out: minimum inhibitory concentrations (MIC).
A further data set deals with M. bovis P-7101. The experiment in a line: microbe, parasite or virus in culture. The format is cell-based. The settings on record: Mycobacterium tuberculosis variant bovis, P7101, 20 h; read-out: minimum inhibitory concentrations (MIC).
For data set [1], the system named is Gram-positive and Gram-negative bacteria. The experiment in a line: In vitro antibacterial activity, overall. The format is cell-based. How it is done: The numbers in the table show minimum inhibitory concentrations (MIC) (μg/ml), calculated for free base. The minimum inhibitory concentration was determined by the twofold agar-dilution method, which was recommended by Japan Society of Chemotherapy (Chemotherapy, 29(1), (1981)), using Muller-Hinton agar. One loopful of an overnight culture of test organisms in Mueller-Hinton broth was inoculated onto 10-ml drug-containing agar layers in petri dishes. Bacterial inocula contained approximately 10^6 colonyl-forming units. Bacterial growth was observed after 20-hour incubation at 37° C. The MIC was defined as the lowest drug concentration which prevented visible bacterial growth.

The subject of another data set is male mice (ddY). The experiment in a line: Acute oral toxicity in mice (Table 3). The note with it: mouse, in vivo.
The test system of another data set is P. aeruginosa 12. Description: microbe, parasite or virus in culture. The format is cell-based. The settings on record: Pseudomonas aeruginosa, 12, 20 h; read-out: minimum inhibitory concentrations (MIC).
Another data set deals with Flavobacterium sp P-7201. The experiment in a line: microbe, parasite or virus in culture. The format is cell-based. The settings on record: P7201, 20 h, read-out: minimum inhibitory concentrations (MIC).

Structures are written as SMILES. Converted amounts (≈) assume the structure as drawn. Bounds are passed on as bounds.

The LD50 is the dose expected to kill half of the subjects tested. A lower LD50 goes with greater toxicity. Regarding `C[C@H]1CN(c2c(F)c(F)c3c(=O)c(C(=O)O)cn(C4CC4)c3c2F)C[C@H]1N` (relative stereo) [Compound 2, 1-cyclopropyl-5,6,8-trifluoro-7-(cis3-amino-4-methyl-1-pyrrolidinyl)-1,4-dihydro-4-oxoquinoline-3-carboxylic acid], the MIC in the data set on S. pyogenes A 65 is 0.39 µg/mL (≈ 1.02 µM); in the data set with S. aureus No. 80 it was 0.05 µg/mL (≈ 0.131 µM); in the data set on S. aureus No. 50774, 0.05 µg/mL (≈ 0.131 µM); in the data set with S. aureus 209P JC-1 it was 0.05 µg/mL (≈ 0.131 µM); in the data set with B. abortus kusayanagi, 0.78 µg/mL (≈ 2.05 µM); in the data set on M. lacunata P-7102 it was 0.78 µg/mL (≈ 2.05 µM). Further, the MIC in the data set with E. coli P-51213 turned out to be 0.05 µg/mL (≈ 0.131 µM); in the data set with S. pyogenes Cook it was 0.2 µg/mL (≈ 0.524 µM); with M. bovis P-7101, 0.39 µg/mL (≈ 1.02 µM); in the data set on P. aeruginosa 12 it was 0.39 µg/mL (≈ 1.02 µM); with Flavobacterium sp P-7201, 0.2 µg/mL (≈ 0.524 µM). This molecule also returned an LD50 at 168 h in “in vivo” of over 2000 mg/kg. The “antibacterial activity against Gram-positive and Gram-negative bacteria (in words)” value (“antibacterial activity” for short) in data set [1] is “very high antibacterial activities”. Moreover, the “toxicity (in words)” value with male mice (ddY) is listed as “low oral toxicity”.
Regarding `C[C@H]1CN(c2c(F)c(N)c3c(=O)c(C(=O)O)cn(C4CC4)c3c2F)C[C@H]1CN.Cl` (relative stereo) [Compound 6, 5-amino-7-(cis-3-aminomethyl-4-methyl-1-pyrrolidinyl)-1-cyclopropyl-6,8-difluoro-1,4-dihydro-4-oxoquinoline-3-carboxylic acid hydrochloride], the MIC was 0.0125 µg/mL in the data set on S. pyogenes A 65; 0.0031 µg/mL in the data set with S. aureus No. 80; 0.0031 µg/mL in the data set with S. aureus No. 50774; under 0.0031 µg/mL in the data set with S. aureus 209P JC-1; 0.39 µg/mL in the data set on B. abortus kusayanagi; 0.2 µg/mL with M. lacunata P-7102. The MIC in the data set on E. coli P-51213 came to 0.0125 µg/mL; in the data set with S. pyogenes Cook, 0.0063 µg/mL; in the data set with M. bovis P-7101 it was 0.2 µg/mL; in the data set on P. aeruginosa 12, 0.1 µg/mL; in the data set on Flavobacterium sp P-7201, 0.025 µg/mL.
For the molecule `CCC1(N)CCN(c2c(F)c(N)c3c(=O)c(C(=O)O)cn(C4CC4)c3c2F)C1` (centres unmarked) [Compound 4, 5-amino-7-(3-amino-3-ethyl-1-pyrrolidinyl)-1-cyclopropyl-6,8-difluoro-1,4-dihydro-4-oxoquinoline-3-carboxylic acid], the MIC with S. pyogenes A 65 was 0.2 µg/mL (≈ 0.51 µM); with S. aureus No. 80 it was 0.0063 µg/mL (≈ 0.0161 µM); with S. aureus No. 50774 it was 0.025 µg/mL (≈ 0.0637 µM); in the data set with S. aureus 209P JC-1, 0.025 µg/mL (≈ 0.0637 µM); with B. abortus kusayanagi it was 0.39 µg/mL (≈ 0.994 µM); in the data set with M. lacunata P-7102 it was 0.78 µg/mL (≈ 1.99 µM). The MIC with E. coli P-51213 amounted to 0.05 µg/mL (≈ 0.127 µM); in the data set on S. pyogenes Cook it was 0.1 µg/mL (≈ 0.255 µM); in the data set with M. bovis P-7101, 0.2 µg/mL (≈ 0.51 µM); in the data set on P. aeruginosa 12 it was 0.2 µg/mL (≈ 0.51 µM); in the data set on Flavobacterium sp P-7201 it was 0.05 µg/mL (≈ 0.127 µM). In “in vivo”, this molecule yielded an LD50 at 168 h of over 2000 mg/kg. Moreover, in [1], the “antibacterial activity” value was “very high antibacterial activities”. The “toxicity (in words)” value in the data set with male mice (ddY) is recorded as “low oral toxicity”.
For `C[C@@H]1CN(c2c(F)c(N)c3c(=O)c(C(=O)O)cn(C4CC4)c3c2F)C[C@H]1N` (relative stereo) [Compound 5, 5-amino-7-(trans-3-amino-4-methyl-1-pyrrolidinyl)-1-cyclopropyl-6,8-difluoro-1,4-dihydro-4-oxoquinoline-3-carboxylic acid], the MIC was determined as 0.1 µg/mL (≈ 0.264 µM) with S. pyogenes A 65; 0.0125 µg/mL (≈ 0.033 µM) in the data set with S. aureus No. 80; 0.0125 µg/mL (≈ 0.033 µM) in the data set on S. aureus No. 50774; 0.025 µg/mL (≈ 0.0661 µM) in the data set on S. aureus 209P JC-1; 0.2 µg/mL (≈ 0.529 µM) in the data set on B. abortus kusayanagi; 0.39 µg/mL (≈ 1.03 µM) with M. lacunata P-7102. In addition, the MIC in the data set with E. coli P-51213 was 0.025 µg/mL (≈ 0.0661 µM); in the data set on S. pyogenes Cook, 0.1 µg/mL (≈ 0.264 µM); in the data set with M. bovis P-7101, 0.1 µg/mL (≈ 0.264 µM); in the data set with P. aeruginosa 12, 0.1 µg/mL (≈ 0.264 µM); in the data set on Flavobacterium sp P-7201, 0.05 µg/mL (≈ 0.132 µM). The LD50 at 168 h in the data set “in vivo” was over 2000 mg/kg. Besides, the “antibacterial activity” value in data set [1] is on record as “very high antibacterial activities”. The “toxicity (in words)” value with male mice (ddY) is given as “low oral toxicity”.
